Laboratory results taken from US20130296267A1, “AGENT FOR INTRA-ARTICULAR INJECTION” (priority 2008, published 2013).

Assay: microscopy of dexamethasone crystals in pure saline and in the innovation
Format: physicochemical
Settings: in phospholipid solution

- crystals after twelve hours (after twelve hours): no longer detectable
- reduction of crystals (within six hours): 50%
Compound: CC(=O)OCC(=O)[C@@]1(O)[C@H](C)C[C@H]2[C@@H]3CCC4=CC(=O)C=C[C@]4(C)[C@@]3(F)[C@@H](O)C[C@@]21C [dexamethasone crystals, dexamethasone acetate]
